Assay results from patent US20230212180A1, “SUBSTITUTED PYRAZINE COMPOUND, PHARMACEUTICAL COMPOSITION COMPRISING SAME, AND USE THEREOF” (Sichuan Kelun-Biotech Biopharmaceutical Co., Ltd., priority 2020, published 2023).

Tests used:
[1] = target: T1, recombinant full-length human PTPN11 (SHP2) (Homo sapiens, UniProt Q06124); test: Inhibition of in vitro enzyme activity of SHP2 (DiFMUP fluorescence endpoint assay); type: biochemical; settings: SHP2 0.5 nM, DiFMUP 200 μM, IRS-1 0.5 μM; 60 min incubation
T1 construct: recombinant full-length human PTPN11 (SHP2), active (SignalChem); purchased SignalChem
T1 sequence (Q06124 1-593): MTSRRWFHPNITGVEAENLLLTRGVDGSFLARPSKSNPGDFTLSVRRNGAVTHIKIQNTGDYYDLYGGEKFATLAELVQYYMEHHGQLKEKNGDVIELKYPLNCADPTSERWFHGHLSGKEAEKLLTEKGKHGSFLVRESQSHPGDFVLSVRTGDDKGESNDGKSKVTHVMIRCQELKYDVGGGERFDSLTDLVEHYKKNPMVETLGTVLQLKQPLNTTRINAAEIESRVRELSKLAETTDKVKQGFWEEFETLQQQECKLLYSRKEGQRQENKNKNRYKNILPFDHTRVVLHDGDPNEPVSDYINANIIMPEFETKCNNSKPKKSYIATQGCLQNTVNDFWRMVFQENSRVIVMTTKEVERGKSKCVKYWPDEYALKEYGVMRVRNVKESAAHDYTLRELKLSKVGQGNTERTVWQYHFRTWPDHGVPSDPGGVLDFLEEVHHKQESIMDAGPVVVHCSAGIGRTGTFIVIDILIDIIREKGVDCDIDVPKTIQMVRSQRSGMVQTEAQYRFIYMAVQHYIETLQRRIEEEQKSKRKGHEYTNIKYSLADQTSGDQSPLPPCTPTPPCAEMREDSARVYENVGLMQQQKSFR
Protocol: Test Example 1: Experiment on the Inhibition of In Vitro Enzyme Activity of SHP2 (Protein Phosphatase)
phosphatase: recombinant full-length human PTPN11 (SHP2), active (SignalChem);
substrate: 6,8-difluoro-4-methylumbelliferyl phosphate (DiFMUP) (Invitrogen);
activating peptide: IRS1_pY1172(dPEG8)pY1222 (IRS1) (BPS Bioscience);
terminator: bpv(phen) (bpv) (Abcam).
SHP2 concentration: 0.5 nM;
DiFMUP concentration: 200 μM;
IRS-1 concentration: 0.5 μM;
bpv concentration: 160 μM;
buffer systems: 60 mM Hepes pH 7.2; 75 mM NaCl; 75 mM KCl; 0.05% surfactant P20; 1 mM EDTA; 5 mM DTT;
incubation duration of compound and enzyme: 60 minutes;
reaction time of enzyme and substrate: 30 minutes;
parameters for microplate reader: BMG PHERAstar fluorescence microplate reader at an excitation wavelength of 340 nm and an emission wavelength of 450 nm.
Test group: A mixture of the test compound and the phosphatase SHP2 together with the activating peptide IRS-1 were incubated in the buffer system at room temperature for 60 minutes. The substrate DiFMUP was added to initiate the reaction and incubated at room temperature for 30 minutes. Thereafter, bpv was added to terminate the reaction. The reaction plate was placed in the microplate reader, and the fluorescence intensities of the wells in the plate were measured using an endpoint assay.
Negative group: The experimental method for the negative group was the same as that for the test group, except that the test compound was substituted with 0.05% aqueous solution of DMSO.
Blank group: The experimental method for the blank group was the same as that for the test group, except that the test compound was substituted with 0.05% aqueous solution of DMSO and that SHP2 was not added.
The relative inhibitory activity was calculated for the test group at each concentration based on the following equation: inhibition rate (%)=100%−(the fluorescence intensity of the test group−the fluorescence intensity of the blank group)/(the fluorescence intensity of the negative group−the fluorescence intensity of the blank group)×100%. The half maximal inhibitory concentration (IC50) of the compound was calculated by fitting the curve according to the four-parameter logistic model.

[2] = test system: KYSE-520 cell (human esophageal squamous cell carcinoma cell); test: Inhibition of the proliferation activity of KYSE-520 cell (CellTiter-Glo); type: cell-based; settings: 120 h, KYSE-520 cell proliferation, 5 days
Protocol: Test Example 2: Experiment on the Inhibition of the Proliferation Activity of KYSE-520 Cell (Human Esophageal Squamous Cell Carcinoma Cell)
cell: KYSE-520 (JCRB Cell Bank);
kit: CellTiter-Glo® Luminescent Cell Viability Assay Kit (Promega).
inoculation amount of cell: 1500 cells/well;
incubation conditions for compound: 37° C., 5% CO2;
incubation duration: 5 days;
detecting temperature: room temperature;
chemiluminescence detection using the BMG PHERAstar FS reader.
Cells were cultured in a medium containing 10% fetal bovine serum under the culture conditions of 37° C. and 5% CO2. An appropriate amount of cells were plated into a 96-well plate and cultured overnight in an incubator to allow the cells to adhere to the wall. The following day, the medium was removed and a complete medium containing a pre-diluted compound was added and incubated at 37° C. for 5 days. On the fifth day, the detection reagent CellTiter-Glo® was added into each well. Chemiluminescence was adopted to detect the relative luminescence units (RLUs) of the wells.
The result of a well containing cell-free medium, treated with CellTiter-Glo®, was obtained as the blank value. Cell viability (%)=(sample RLU−blank RLU)/(vehicle RLU−blank RLU)×100%, and maximum inhibition rate (%)=100%−cell viabilitymax. conc. (%). The half maximal inhibitory concentration (IC50) of the compound was calculated by fitting the curve according to the four-parameter logistic model.

[3] = target: T2, hERG (Homo sapiens, UniProt Q12809); test: Biochemical assay for hERG inhibition (Predictor hERG Fluorescence Polarization Assay Kit); type: binding
T2 construct: purchased ThermoFisher
T2 sequence (Q12809 whole entry): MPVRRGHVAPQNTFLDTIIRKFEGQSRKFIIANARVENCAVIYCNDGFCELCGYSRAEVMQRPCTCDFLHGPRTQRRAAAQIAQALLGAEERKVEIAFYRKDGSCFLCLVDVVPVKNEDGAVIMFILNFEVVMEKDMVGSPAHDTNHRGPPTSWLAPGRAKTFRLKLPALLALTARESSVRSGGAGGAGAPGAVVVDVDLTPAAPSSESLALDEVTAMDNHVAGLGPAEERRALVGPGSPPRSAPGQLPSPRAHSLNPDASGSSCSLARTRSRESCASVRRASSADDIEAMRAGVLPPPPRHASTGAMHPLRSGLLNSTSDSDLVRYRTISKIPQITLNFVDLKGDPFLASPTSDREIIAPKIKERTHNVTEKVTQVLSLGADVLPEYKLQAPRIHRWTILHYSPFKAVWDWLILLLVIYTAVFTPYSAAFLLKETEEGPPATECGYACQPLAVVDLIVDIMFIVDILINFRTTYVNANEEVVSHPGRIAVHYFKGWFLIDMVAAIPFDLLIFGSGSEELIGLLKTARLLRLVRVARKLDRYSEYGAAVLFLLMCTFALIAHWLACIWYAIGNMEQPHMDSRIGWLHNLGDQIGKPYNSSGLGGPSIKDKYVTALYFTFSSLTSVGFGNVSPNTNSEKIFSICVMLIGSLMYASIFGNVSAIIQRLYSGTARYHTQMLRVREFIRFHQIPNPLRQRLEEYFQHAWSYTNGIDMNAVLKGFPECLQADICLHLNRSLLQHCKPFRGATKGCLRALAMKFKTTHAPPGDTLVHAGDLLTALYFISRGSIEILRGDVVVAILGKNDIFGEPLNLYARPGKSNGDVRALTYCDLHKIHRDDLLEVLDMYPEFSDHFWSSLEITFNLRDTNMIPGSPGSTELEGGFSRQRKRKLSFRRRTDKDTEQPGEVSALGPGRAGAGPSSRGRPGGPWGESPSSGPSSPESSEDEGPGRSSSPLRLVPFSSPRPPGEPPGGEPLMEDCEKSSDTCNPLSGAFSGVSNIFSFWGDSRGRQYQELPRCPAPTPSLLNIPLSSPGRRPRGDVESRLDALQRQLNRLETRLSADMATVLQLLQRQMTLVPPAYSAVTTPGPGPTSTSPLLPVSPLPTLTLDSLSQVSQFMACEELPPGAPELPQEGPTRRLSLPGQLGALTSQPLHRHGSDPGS
Protocol: Test Example 3: Biochemical Assay for hERG Inhibition
kit: Predictor™ hERG Fluorescence Polarization Assay Kit (ThermoFisher) containing:
Compound E4031 as a positive control;
tracer concentration: 1 nM;
incubation duration: 2 hours;
parameters for microplate reader: BMG PHERAstar FS fluorescence microplate reader.
Test group: The test compounds at different concentrations were added into a microplate containing hERG cell membrane, and the tracer with a high affinity for hERG was then added into each well. The microplate was incubated at 25° C. for 2 hours before detection of the change in fluorescence polarization value (mP) (excitation wavelength: 540 nm; emission wavelength: 590 nm) using a multi-mode microplate reader.
Positive control group: The experimental method for the positive control group was the same as that for the test group, except that the test compound was replaced with 30 μM Compound E4031.
Blank control group: The experimental method for the blank control group was the same as that for the test group, except that the test compound was replaced with the hERG buffer and that the hERG cell membrane was not added.
Based on the data ratios, the percentage inhibition (%) of the compounds of the present disclosure against hERG at different concentrations was calculated and the range of the half maximal inhibitory concentration (IC50) of the compounds was determined. Percentage inhibition (%)=(1−(mP of the test compound−mP of the positive control group)/(mP of the blank control group−mP of the positive control group))×100%.

| Structure (SMILES) | IC50 [1] [nM] | IC50 [2] [µM] | IC50 [3] [µM] |
| --- | --- | --- | --- |
| C[C@@H]1OCC2(CCN(c3ncc(Sc4ccnc(N5CCCC5CC#N)c4Cl)nc3CO)CC2)[C@@H]1N (stereo partly drawn) [Example 18, 2-(1-(4-(5-((3S,4S)-4-amino-3-methyl-2-oxa-8-azaspiro[4.5]decan-8-yl)-6-(hydroxymethyl)pyrazin-2-ylthio)-3-chloropyridin-2-yl)pyrrolidin-2-yl)acetonitrile] | 1.9 | 0.24 | > 10 |
| C[C@@H]1OCC2(CCN(c3ncc(Sc4ccnc(N5CC(C(C)(C)C#N)C5)c4Cl)nc3CO)CC2)[C@@H]1N [Example 30, 2-(1-(4-(5-((3S,4S)-4-amino-3-methyl-2-oxa-8-azaspiro[4.5]decan-8-yl)-6-(hydroxymethyl)pyrazin-2-ylthio)-3-chloropyridin-2-yl)azetidin-3-yl)-2-methylpropanenitrile] | 4 | – | > 10 |
| C[C@@H]1OCC2(CCN(c3ncc(Sc4ccnc(N5CCCC5CO)c4Cl)nc3CF)CC2)[C@@H]1N (stereo partly drawn) [Example 4, (1-(4-(5-((3S,4S)-4-amino-3-methyl-2-oxa-8-azaspiro[4.5]decan-8-yl)-6-(fluoromethyl)pyrazin-2-ylthio)-3-chloropyridin-2-yl)pyrrolidin-2-yl)methanol] | 4.1 | 0.17 | > 10 |
| C[C@@H]1OCC2(CCN(c3ncc(Sc4ccnc(N5CC(F)(CO)C5)c4Cl)nc3CO)CC2)[C@@H]1N [Example 39, (3-((3S,4S)-4-amino-3-methyl-2-oxa-8-azaspiro[4.5]decan-8-yl)-6-(3-chloro-2-(3-fluoro-3-(hydroxymethyl)azetidin-1-yl)pyridin-4-ylthio)pyrazin-2-yl)methanol] | 1.4 | 0.02 | > 10 |
| C[C@@H]1OCC2(CCN(c3ncc(Sc4ccnc(N5CC[C@H]5CO)c4Cl)nc3CO)CC2)[C@@H]1N [Example 9, (3-((3S,4S)-4-amino-3-methyl-2-oxa-8-azaspiro[4.5]decan-8-yl)-6-(3-chloro-2-((S)-2-(hydroxymethyl)azetidin-1-yl)pyridin-4-ylthio)pyrazin-2-yl)methanol] | 1.3 | 0.22 | > 10 |
| N[C@@H]1COCC12CCN(c1ncc(Sc3ccnc(N4CCCC4CO)c3Cl)nc1CO)CC2 (stereo partly drawn) [Example 7, (3-((S)-4-amino-2-oxa-8-azaspiro[4.5]decan-8-yl)-6-(3-chloro-2-(2-(hydroxymethyl)pyrrolidin-1-yl)pyridin-4-ylthio)pyrazin-2-yl)methanol] | 4.6 | 0.77 | > 10 |
